Test results reported in patent publication US4904585A, “Novel antibiotic NK84-0218 and process for the production of the same” (Nippon Kayaku Kabushiki Kaisha, priority 1984, dated 1990).
In brackets after ≈: the same amount, converted by molar mass.

Assays:
[1] = tested on: HeLa cell; assay: Anti-HeLa cell activity; format: cell-based; conditions: for Cells/plate: 72 hours after the addition
Experimental: *The number of cells 72 hours after the addition of NK840218.

[2] = tested on: gram-positive bacteria; assay: Antibacterial spectrum, summary in words; format: cell-based; conditions: S. aureus FDA 209P, Bacillus including B. subtilis PCI 219 and B. cereus IAM 1072, Micrococcus flavus ATCC 10240
[3] = tested on: Salmonella paratyphi 1015 (MS-1); assay: Antibacterial spectrum, agar plate dilution method; format: cell-based; conditions: Salmonella enterica, read-out: Minimum inhibitory concentration
[4] = tested on: Enterobacter aerogenes ATCC 13048 (MS-1); assay: Antibacterial spectrum, agar plate dilution method; format: cell-based; conditions: Klebsiella aerogenes, ATCC13048, 0.5% peptone agar, read-out: Minimum inhibitory concentration
[5] = tested on: Proteus mirabilis IFO 3849; assay: Antibacterial spectrum, agar plate dilution method; format: cell-based; conditions: IFO3849, 0.5% peptone agar, read-out: Minimum inhibitory concentration
[6] = tested on: Mycobacterium smegmatis ATCC 607; assay: Antibacterial spectrum, agar plate dilution method; format: cell-based; conditions: Mycolicibacterium smegmatis, ATCC607, 0.5% peptone agar, read-out: Minimum inhibitory concentration
[7] = tested on: herpes simplex virus-I (HSV-I); assay: Antiviral activity, cytopathic effect of HSV-I on Vero cells; format: cell-based
Experimental: A medium containing a definite amount of NK84-0218 and herpes simplex virus-I (HSV-I) 5-10 TC ID50 are added onto a single layer of vero cells in a microplate having 96 wells and cultured in a 5% by volume carbon dioxide incubator at 37° C. for 96 to 120 hours. Then the antiviral activity of the test substance is determined by microscopically observing the cytopathic effect (CPE) of the HSV-I on the Vero cells. The inhibition is taken as effective when no CPE is observed in a well. For example, when CPE is observed in one well among ten at the same concentration, the inhibition ratio is 90%.

[8] = tested on: Bacillus subtilis PCI 219; assay: Antibacterial spectrum, agar plate dilution method; format: cell-based; conditions: PCI219, 0.5% peptone agar, read-out: Minimum inhibitory concentration
[9] = tested on: Bacillus licheniformis IFO 12107; assay: Antibacterial spectrum, agar plate dilution method; format: cell-based; conditions: IFO12107, 0.5% peptone agar, read-out: Minimum inhibitory concentration
[10] = tested on: gram-negative bacteria; assay: Antibacterial spectrum, summary in words; format: cell-based; conditions: agar plate dilution method
[11] = Solubility in solvents; format: physicochemical
Description: In order to isolate the antibiotic of the present invention, the culturing broth is purified in a manner conventionally used in isolating a metabolite of a microorganism from its culturing broth. […] For example, the culturing broth is adjusted to a pH value of 3.5 to 6.5, preferably 4 to 4.5, adsorbed by powdery active carbon, washed with water and eluted with a 50% aqueous acetone and the active fraction thus obtained is concentrated and lyophilized to give a brown crude powder. Then this powder is dissolved in methanol and insoluble substances are removed. The soluble portion is dried, dissolved in water, adsorbed by an active carbon column, washed with water and subjected to acetone linear concentration gradient elution with water and 50% aqueous acetone. The obtained active fraction is concentrated and lyophilized. The pale brown powder containing NK84-0218 thus obtained is dissolved in a small amount of water and packed into an Avicel column. Then it is developed with an aqueous alcohol and eluted with increasing the water content stepwise. The active fractions thus obtained are combined, concentrated and lyophilized. Subsequently the obtained powder is dissolved in a small amount of water and packed into an SP Sephadex® C-25(Na^+) column previously equilibrated with 0.02M sodium chloride. The active fractions eluted with 0.02M sodium chloride are desalted on active carbon to give a colorless powder. The powder thus purified is treated with water or an aqueous alcohol to give NK84-0218 in the form of colorless needles. The titer during the cultivation is determined by plate cup assay with Bacillus subtilis PCI 219.

[12] = tested on: Micrococcus luteus ATCC 9341; assay: Antibacterial spectrum, agar plate dilution method; format: cell-based; conditions: ATCC9341, 0.5% peptone agar, read-out: Minimum inhibitory concentration
[13] = tested on: Escherichia coli K-12; assay: Antibacterial spectrum, agar plate dilution method; format: cell-based; conditions: K12, 0.5% peptone agar, read-out: Minimum inhibitory concentration
[14] = tested on: Micrococcus flavus ATCC 10240; assay: Antibacterial spectrum, agar plate dilution method; format: cell-based; conditions: ATCC10240, 0.5% peptone agar, read-out: Minimum inhibitory concentration
[15] = tested on: Proteus morganii IFO 3168; assay: Antibacterial spectrum, agar plate dilution method; format: cell-based; conditions: Morganella morganii, IFO3168, 0.5% peptone agar, read-out: Minimum inhibitory concentration
[16] = tested on: Escherichia coli NIHJ; assay: Antibacterial spectrum, agar plate dilution method; format: cell-based; conditions: 0.5% peptone agar, read-out: Minimum inhibitory concentration
[17] = tested on: Bacillus cereus IAM 1072; assay: Antibacterial spectrum, agar plate dilution method; format: cell-based; conditions: IAM1072, 0.5% peptone agar, read-out: Minimum inhibitory concentration
[18] = tested on: Bacillus polymyxa IAM 1210; assay: Antibacterial spectrum, agar plate dilution method; format: cell-based; conditions: Paenibacillus polymyxa, IAM1210, 0.5% peptone agar, read-out: Minimum inhibitory concentration
[19] = tested on: Proteus vulgaris IFO 3045; assay: Antibacterial spectrum, agar plate dilution method; format: cell-based; conditions: IFO3045, 0.5% peptone agar, read-out: Minimum inhibitory concentration
[20] = tested on: Pseudomonas aernginosa IFO 3445; assay: Antibacterial spectrum, agar plate dilution method; format: cell-based; conditions: IFO3445, 0.5% peptone agar, read-out: Minimum inhibitory concentration
[21] = tested on: Candida albicans NIH 3147; assay: Antibacterial spectrum, agar plate dilution method; format: cell-based; conditions: NIH3147, 0.5% peptone agar, read-out: Minimum inhibitory concentration
[22] = tested on: Bacillus megaterium ATCC 14945; assay: Antibacterial spectrum, agar plate dilution method; format: cell-based; conditions: Priestia megaterium, ATCC14945, 0.5% peptone agar, read-out: Minimum inhibitory concentration
[23] = tested on: Klebsiella pneumoniae PCI 602; assay: Antibacterial spectrum, agar plate dilution method; format: cell-based; conditions: PCI602, 0.5% peptone agar, read-out: Minimum inhibitory concentration
[24] = tested on: Salmonella enteritidis G14 (MS-1); assay: Antibacterial spectrum, agar plate dilution method; format: cell-based; conditions: Salmonella enterica, 0.5% peptone agar, read-out: Minimum inhibitory concentration
[25] = tested on: Bacillus subtilis ATCC 6633; assay: Antibacterial spectrum, agar plate dilution method; format: cell-based; conditions: ATCC6633, 0.5% peptone agar, read-out: Minimum inhibitory concentration
[26] = tested on: Serratia marcescens GM 6484; assay: Antibacterial spectrum, agar plate dilution method; format: cell-based; conditions: GM6484, 0.5% peptone agar, read-out: Minimum inhibitory concentration
[27] = Acute toxicity on mice; format: in vivo
[28] = tested on: Salmonella typhi 901 (MS-1); assay: Antibacterial spectrum, agar plate dilution method; format: cell-based; conditions: Salmonella enterica, read-out: Minimum inhibitory concentration
[29] = tested on: Staphylococcus aureus EDA 209P; assay: Antibacterial spectrum, agar plate dilution method; format: cell-based; conditions: 0.5% peptone agar, read-out: Minimum inhibitory concentration

**Q.** What does the source list for `Nc1ncnc2c1ncn2C1OC(CO)C1CO` (centres unmarked) [NK84-0218]?
**A.** Cells/plate ([1]; 0.39 μg/ml): 14.35 × 10^5; Cells/plate ([1]; 1.56 μg/ml): 14.64 × 10^5; Cells/plate ([1]; 6.25 μg/ml): 13.91 × 10^5; Cells/plate ([1]; 25 μg/ml): 13.47 × 10^5; Cells/plate ([1]; 100 μg/ml): 2.78 × 10^5; inhibition at 0.39 µg/mL ([1]; Homo sapiens, HeLa, 0.39 μg/ml, 72 hours, read-out: Inhibition ratio): 3.58%; inhibition at 1.56 µg/mL ([1]; Homo sapiens, HeLa, 1.56 μg/ml, 72 hours, read-out: Inhibition ratio): 1.26%; inhibition at 6.25 µg/mL ([1]; Homo sapiens, HeLa, 6.25 μg/ml, 72 hours, read-out: Inhibition ratio): 6.94%; inhibition at 25 µg/mL ([1]; Homo sapiens, HeLa, 25 μg/ml, 72 hours, read-out: Inhibition ratio): 10.2%; inhibition at 100 µg/mL ([1]; Homo sapiens, HeLa, 100 μg/ml, 72 hours, read-out: Inhibition ratio): 93.4%; IC50 ([1]; Homo sapiens, HeLa cell, 72 hours): ~47 µg/mL (≈ 187 µM); inhibiting the growth of gram-positive bacteria [2]: intense effects of inhibiting the growth; MIC [3]: > 100 µg/mL; MIC [4]: > 100 µg/mL; MIC [5]: > 100 µg/mL; MIC [6]: > 100 µg/mL; antiviral activity (in words) [7]: exhibits an antiviral activity; MIC [8]: < 0.1 µg/mL; MIC [9]: 6.25 µg/mL (≈ 24.9 µM); effect on gram-negative bacteria [10]: no effect; Solubility ([11]; in dimethyl sulfoxide): soluble; Solubility ([11]; in ethanol): soluble; Solubility ([11]; in methanol): soluble; Solubility ([11]; in other organic solvents such as propanol, acetone, ethyl acetate, ether and benzene): hardly or not soluble; Solubility ([11]; in water): soluble; MIC [12]: 3.12 µg/mL (≈ 12.4 µM); MIC [13]: > 100 µg/mL; MIC [14]: 6.25 µg/mL (≈ 24.9 µM); MIC [15]: > 100 µg/mL; MIC [16]: > 100 µg/mL; MIC [17]: < 0.1 µg/mL; MIC [18]: < 0.1 µg/mL; MIC [19]: > 100 µg/mL; MIC [20]: > 100 µg/mL; MIC [21]: > 100 µg/mL; MIC [22]: 1.56 µg/mL (≈ 6.21 µM); MIC [23]: > 100 µg/mL; MIC [24]: > 100 µg/mL; MIC [25]: < 0.1 µg/mL; MIC [26]: > 100 µg/mL; acute toxicity compared with various known nucleoside antibiotics ([27]; i.v.): lower than those of various known nucleoside antibiotics; LD50 ([27]; mouse, in vivo, iv): ≥ 100 mg/kg; MIC [28]: > 100 µg/mL; MIC [29]: < 0.1 µg/mL
